Entries after “also recorded” stand apart in the source; their conditions may differ.
How the values were obtained:
[1] = target: His-nNOS1-299 and GST-NOS1AP400-506 (Homo sapiens, UniProt P29475); experiment: AlphaScreen nNOS-NOS1AP binding disruption; details: 1X PBS, BSA (1mg/mL), Tween-20 (0.1%), 0–200 μM, n = 4–9
[2] = tested on: cold response times, C57BL/6J mice; experiment: Paclitaxel-induced cold allodynia; type: in vivo
[3] = tested on: mechanical paw withdrawal thresholds, C57BL/6J mice; experiment: PSNL-induced mechanical allodynia; type: in vivo
[4] = tested on: cold response times, C57BL/6J mice; experiment: PSNL-induced cold allodynia; type: in vivo
ERK1/2 = experiment: Western blot pERK1/2 in lumbar spinal cord; type: in vivo, mouse; details: n = 5
primary cortical neurons = experiment: Glutamate/glycine-induced cell death in primary cortical neurons; type: cell-based, Sprague-Dawley rat; details: MK-801 20 μM; n = 3–4; p < 0.01 for each comparison
NMDA-induced cell death = details: ref [29]; cited from earlier work
[5] = tested on: mechanical paw withdrawal thresholds, C57BL/6J mice; experiment: Paclitaxel-induced mechanical allodynia; type: in vivo; details: paclitaxel 4 mg/kg i.p. on day 0, 2, 4, 6; starting on day 7 and ongoing on day 15; p < 0.0001
[6] = tested on: p53 phosphorylated at Ser15; experiment: Western blot pSer15-p53 in lumbar spinal cord; type: in vivo, mouse; details: paclitaxel 4 mg/kg i.p. on day 0, 2, 4, 6, n = 5, p = 0.002
[7] = tested on: paclitaxel-induced neuropathic pain; details: administered acutely; ref [27]; cited from earlier work
p38 MAPK = details: rats, cited from earlier work; for p38 MAPK activation in microglia: 5 minutes post treatment, returned to basal levels after 20 minutes, ref [46]
His-nNOS_(1-299) = His-nNOS_(1-299) (UniProt P29476-1 1-299); experiment: AlphaScreen or HTRF
nNOS = details: ref [6], [29]; cited from earlier work
[8] = tested on: NR1 and NR2B; astrocytes and microglia in the lumbar spinal cord; details: direct intrathecal injections; ref [2]; cited from earlier work

Sequence of His-nNOS1-299 and GST-NOS1AP400-506 (P29475 1-299): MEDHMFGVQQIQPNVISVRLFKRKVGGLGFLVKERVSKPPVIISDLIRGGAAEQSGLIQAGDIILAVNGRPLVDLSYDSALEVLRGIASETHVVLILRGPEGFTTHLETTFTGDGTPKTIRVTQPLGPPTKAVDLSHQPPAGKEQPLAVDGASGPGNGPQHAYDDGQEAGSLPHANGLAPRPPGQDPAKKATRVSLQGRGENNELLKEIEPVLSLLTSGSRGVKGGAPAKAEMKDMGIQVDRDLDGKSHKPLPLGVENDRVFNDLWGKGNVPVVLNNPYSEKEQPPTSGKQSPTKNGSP
Sequence of His-nNOS_(1-299) (P29476 1-299): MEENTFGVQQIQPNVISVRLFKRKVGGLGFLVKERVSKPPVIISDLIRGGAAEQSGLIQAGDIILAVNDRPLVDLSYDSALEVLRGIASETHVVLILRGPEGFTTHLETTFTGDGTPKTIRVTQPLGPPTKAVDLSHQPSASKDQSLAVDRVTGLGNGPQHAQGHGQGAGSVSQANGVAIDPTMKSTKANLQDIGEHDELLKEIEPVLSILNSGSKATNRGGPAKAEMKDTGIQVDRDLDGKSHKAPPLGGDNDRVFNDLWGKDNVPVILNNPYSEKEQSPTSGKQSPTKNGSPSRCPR

GRKKRRQRRRYAGQWGES [TAT-GESVΔ1]
disruption of nNOS-NOS1AP binding [1]: Neither TAT-cp4GESV nor TAT-GESVΔ1 disrupted the interactions; also recorded: Neither TAT-GESVΔ1 nor TAT-cp4GESV disrupted the binding
cold response times vs saline (i.t.) in paclitaxel-treated mice ([2]; 10 nmol i.t., n = 6, TAT-GESV p = 0.039, TAT-GESVΔ1 p = 1): did not differ from saline
ipsilateral paw withdrawal thresholds vs saline, PSNL ([3]; 10 nmol i.t., acute, n = 6–10, TAT-GESV p < 0.05, TAT-GESVΔ1 p = 1): did not differ
cold responsiveness, repeated dosing, PSNL ([4]; 10 nmol i.t. once daily, 8 consecutive days, n = 5–10, TAT-GESV vs saline p < 0.05, TAT-GESVΔ1 p > 0.25 for each comparison): did not reliably alter cold responsiveness relative to saline (i.t.), MK-801 (i.t.) or TAT-GESV (i.t.)
ipsilateral cold-response times vs saline, PSNL ([4]; 10 nmol i.t., acute, n = 6–10, TAT-GESV p < 0.01, TAT-GESVΔ1 p = 1): did not differ
contralateral cold responsiveness, PSNL or sham ([4]; acute i.t., p = 0.39 (dose), p = 0.491 (drug), p = 0.882 (interaction)): neither TAT-GESV nor TAT-GESVΔ1 altered mechanical or cold responsiveness in the paw contralateral to PSNL or sham surgery
pERK1/2 elevation vs saline (i.t.), paclitaxel-treated mice (ERK1/2; 5 nmol i.t., 20 min post injection, p > 0.4): neither TAT-GESV nor TAT-GESVΔ1 (5 nmol, i.t.) altered pERK1/2 elevation

C[C@]12N[C@H](Cc3ccccc31)c1ccccc12 [MK-801]
cell death vs all other groups exposed to glutamate/glycine (primary cortical neurons): Cell death was lower
sustained mechanical efficacy, day 4–8, repeated dosing, PSNL ([3]; MK-801 5 nmol i.t. once daily, p < 0.001 for each comparison): similarly increased mechanical paw withdrawal thresholds relative to saline (i.t.) or TAT-GESVΔ1 (i.t.) with sustained efficacy
cold sensitivity vs saline, repeated dosing, PSNL ([4]; MK-801 5 nmol i.t. once daily, 8 consecutive days, n = 5–10, p = 0.072): approached significance

GRKKRRQRRRGESVYAGQW [TAT-cp4GESV]
disruption of nNOS-NOS1AP binding [1]: Neither TAT-cp4GESV nor TAT-GESVΔ1 disrupted the interactions; also recorded: Neither TAT-GESVΔ1 nor TAT-cp4GESV disrupted the binding
NMDA-induced cell death (NMDA-induced cell death): did not disrupt NMDA activation-induced cell death

CC(=O)O[C@H]1C(=O)[C@@]2(C)[C@H]([C@H](OC(=O)c3ccccc3)[C@]3(O)C[C@H](OC(=O)[C@H](O)[C@@H](NC(=O)c4ccccc4)c4ccccc4)C(C)=C1C3(C)C)[C@]1(OC(C)=O)CO[C@@H]1C[C@@H]2O [Paclitaxel]
mechanical paw withdrawal thresholds after paclitaxel vs vehicle [5]: lowered mechanical paw withdrawal thresholds
cold response times after paclitaxel vs vehicle ([2]; paclitaxel 4 mg/kg i.p. on day 0, 2, 4, 6, starting on day 7 and ongoing on day 15, p < 0.0001): increased cold response times
pSer15-p53 levels, paclitaxel-treated vs vehicle-treated mice [6]: increased lumbar spinal cord levels of pSer15-p53
pERK1/2 levels, paclitaxel-treated vs cremophor-vehicle treated mice (ERK1/2; paclitaxel 4 mg/kg i.p. on day 0, 2, 4, 6, lumbar spinal cord, saline i.t., p < 0.0001): elevated pERK1/2 levels

O=C(O)c1ccc(NCc2cc(Cl)cc(Cl)c2O)cc1O [ZL006]
suppression of paclitaxel-induced neuropathic pain [7]: efficacious in suppressing paclitaxel-induced neuropathic pain

GRKKRRQRRR [TAT]
disruption of nNOS-NOS1AP binding [1]: did not interfere with the binding between His-nNOS1-299 and GST-NOS1AP400-506

CN[C@H](CC(=O)O)C(=O)O [NMDA, N-methyl-D-aspartate]
spinal p38 MAPK activation (p38 MAPK; administration directly to the spinal cord, ref [45]): induced p38 MAPK activation

formalin
p38 MAPK activation in microglia (p38 MAPK): induced p38 MAPK activation in microglia 5 minutes post treatment

substance P
p38 MAPK activation in microglia (p38 MAPK): induced p38 MAPK activation in microglia 5 minutes post treatment

Oc1c(Cl)cc(Cl)cc1CNc1ccc2n[nH]nc2c1 [IC87201]
NMDAR-evoked nNOS-NOS1AP association/p38 MAPK-dependent cell death (NMDA-induced cell death): blocked
suppression of paclitaxel-induced neuropathic pain [7]: efficacious in suppressing paclitaxel-induced neuropathic pain

GRKKRRQRRRYAGQWGESV [L-TAT-GESV]
IC50 (His-nNOS_(1-299)): 8.47 µM

B1: nNOS1-99: nNOS fragment disrupting nNOS-NOS1AP interactions (protein, UniProt P29475 1-99, looked up, fragment)
chain: MEDHMFGVQQIQPNVISVRLFKRKVGGLGFLVKERVSKPPVIISDLIRGGAAEQSGLIQAGDIILAVNGRPLVDLSYDSALEVLRGIASETHVVLILRG
enzymatic activity of nNOS or production of NO (nNOS): does not alter the enzymatic activity of nNOS or the production of NO

B2: CCL-1: chemokines C-C motif ligand 1 (protein, UniProt P22362 24-96, looked up)
C-C motif chemokine 1: KSMQVPFSRCCFSFAEQEIPLRAILCYRNTSSICSNEGLIFKLKRGKEACALDTVGWVQRHRKMLRHCPSKRK
NR1 and NR2B phosphorylation, glial activation in lumbar spinal cord [8]: induced phosphorylation of NR1 and NR2B and activated astrocytes and microglia in the lumbar spinal cord
